These are literature values, as cited in patent US7612104B2, “Bicyclic aryl-sulfonic acid [1,3,4]-thiadiazol-2-yl-amides, processes for their preparation, pharmaceutical compositions and methods for their use” (Sanofi-Aventis, priority 2005, dated 2009).

Like-named read-outs stand apart in the source and are kept apart here.

Data set [1] has as its target T1, PPARdelta (Macaca mulatta, UniProt I0FFS1).
T1 construct: host or cells: rhesus monkeys in vivo
T1 sequence (I0FFS1 1-441): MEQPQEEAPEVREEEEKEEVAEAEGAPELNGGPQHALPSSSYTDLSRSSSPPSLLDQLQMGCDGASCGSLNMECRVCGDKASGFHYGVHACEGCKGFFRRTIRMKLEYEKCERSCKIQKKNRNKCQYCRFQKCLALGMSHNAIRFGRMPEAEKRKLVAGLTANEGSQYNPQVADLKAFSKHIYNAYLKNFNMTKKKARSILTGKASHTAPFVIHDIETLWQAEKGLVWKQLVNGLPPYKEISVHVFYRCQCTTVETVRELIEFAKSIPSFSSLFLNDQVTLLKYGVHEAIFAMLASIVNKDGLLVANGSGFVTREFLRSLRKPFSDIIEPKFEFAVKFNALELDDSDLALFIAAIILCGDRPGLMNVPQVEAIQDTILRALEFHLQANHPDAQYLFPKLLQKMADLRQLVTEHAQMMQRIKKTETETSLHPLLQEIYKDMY
The settings on record: obese, insulin resistant rhesus monkeys; cited from earlier work.

Data set [2] has as its system PPARdelta. The settings on record: diabetic animal model; cited from earlier work.
Data set [3] deals with PPARdelta/PPARalpha. The settings on record: rhesus and cynomolgus monkeys; cited from earlier work.
Data set [4] has as its system PPARdelta/PPARalpha. To be noted: two weeks clinical trials in healthy volunteers; cited from earlier work.

As for `Cc1cc(SCc2sc(-c3ccc(C(F)(F)F)cc3)nc2C)ccc1OCC(=O)O` [GW501516], at PPARdelta [1], the HDL-cholesterol result is on record as “raises”, the insulin levels result is recorded as “decreases”, the “plasma LDL-cholesterol” value was “decreases” and the triglycerides entry was “decreases”.

Regarding `CCCc1c(OCCCOc2ccc(OCC(=O)O)cc2)ccc(C(C)=O)c1O` [Example L-165041], the plasma cholesterol result in the data set on PPARdelta [2] is reported as “raises plasma cholesterol”.

`CCCc1c(OCCCSc2nnc(SCC(=O)O)s2)ccc(C(C)=O)c1O` [YM-16638]: the plasma lipids result was “significantly lowers” in the data set on PPARdelta/PPARalpha [3] and “acts in a similar manner” in the data set with PPARdelta/PPARalpha [4].
